Experimental data from paper PMC11969009 (Nature Communications, 2025).
Values joined by “and” are separate entries in the source; they are usually repeats but may differ in a detail not shown here. Equal values may be shown once. Read-outs that look alike come from different tables or passages of the source.

Columns and labels:
CYP2C8 = CYP2C8 (Homo sapiens, UniProt P10632); details: microsomes
SARS-CoV-2 P2 strain = test system: SARS-CoV-2 P2 strain; parameters: species or system C57BL/6 (WT) mice; details: mouse, in vivo
[1] = test system: SARS-CoV-2 clinical isolate VIC001; test: microbe, parasite or virus in culture; type: cell-based; details: for EC50: Severe acute respiratory syndrome coronavirus 2, Vero
CYP2B6 = CYP2B6 (Homo sapiens, UniProt P20813); test: biochemical
Sequence of CYP2B6 (P20813 whole entry): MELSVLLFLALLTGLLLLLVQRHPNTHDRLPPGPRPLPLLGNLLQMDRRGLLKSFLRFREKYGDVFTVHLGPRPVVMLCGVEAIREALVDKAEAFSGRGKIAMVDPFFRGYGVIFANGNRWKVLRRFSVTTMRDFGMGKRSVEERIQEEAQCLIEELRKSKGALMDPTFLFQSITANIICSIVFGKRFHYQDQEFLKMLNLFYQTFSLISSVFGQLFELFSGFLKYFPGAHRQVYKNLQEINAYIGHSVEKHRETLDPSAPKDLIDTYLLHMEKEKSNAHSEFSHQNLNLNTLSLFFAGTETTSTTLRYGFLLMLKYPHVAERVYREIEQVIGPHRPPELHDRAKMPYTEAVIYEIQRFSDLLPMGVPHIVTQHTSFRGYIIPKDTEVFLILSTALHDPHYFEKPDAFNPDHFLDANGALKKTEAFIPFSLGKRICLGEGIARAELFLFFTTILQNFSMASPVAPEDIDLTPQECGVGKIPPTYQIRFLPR

SARS-CoV-2 PLpro [2] = target: T1, SARS-CoV-2 PLpro (Severe acute respiratory syndrome coronavirus 2, UniProt P0DTD1); test: biochemical; parameters: inhibition of SARS-CoV-2 PLpro, UbRh dose-response replicate value: unit: %; details: for IC50: IC50 (UbRh) SARS-CoV-2 PLpro
SARS-CoV-2 PLpro [3] = target: T1, SARS-CoV-2 PLpro; test: cell-based; type: cell-based
SARS-CoV-2 PLpro [4] = target: T1, SARS-CoV-2 PLpro
CYP3A4/5 [5] = details: human, microsomes, pH 7.4
CYP3A4/5 [6] = details: human, microsomes
CYP3A4/5 [7] = test: in vitro; details: human, microsomes, pH 7.4, CYP3A4/5 IC50
CYP3A4/5 [8] = test: in vitro; details: human, microsomes
[9] = read-out: Antiviral EC50 (plaque assay)

Sequence of CYP2C8 (P10632 whole entry): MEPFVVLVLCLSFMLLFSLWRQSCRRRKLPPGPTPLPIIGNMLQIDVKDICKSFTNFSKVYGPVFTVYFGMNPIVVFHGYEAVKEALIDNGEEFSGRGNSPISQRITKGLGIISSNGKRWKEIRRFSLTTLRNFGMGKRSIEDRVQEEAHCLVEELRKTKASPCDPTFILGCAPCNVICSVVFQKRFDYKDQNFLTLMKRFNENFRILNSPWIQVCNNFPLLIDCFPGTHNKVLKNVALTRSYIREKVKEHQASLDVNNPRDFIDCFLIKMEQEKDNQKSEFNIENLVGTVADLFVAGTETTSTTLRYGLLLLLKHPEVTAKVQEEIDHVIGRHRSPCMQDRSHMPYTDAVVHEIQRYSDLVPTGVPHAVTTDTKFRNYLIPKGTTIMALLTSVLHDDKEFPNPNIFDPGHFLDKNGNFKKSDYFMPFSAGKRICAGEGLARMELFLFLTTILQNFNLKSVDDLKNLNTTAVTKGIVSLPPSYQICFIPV

Molecule quercitin [reference compound] has an IC50 (CYP2C8) of 2300 nM.

For `CC(C)c1nc(CN(C)C(=O)N[C@H](C(=O)N[C@@H](Cc2ccccc2)C[C@H](O)[C@H](Cc2ccccc2)NC(=O)OCc2cncs2)C(C)C)cs1` [ritonavir, reference compound], the “antiviral activity (lung viral burden), mild model” value (SARS-CoV-2 P2 strain) was “no antiviral activity”.

In the case of `CC(C)(C)[C@H](NC(=O)C(F)(F)F)C(=O)N1C[C@H]2[C@@H]([C@H]1C(=O)N[C@H](C#N)C[C@@H]1CCNC1=O)C2(C)C` [Nirmatrelvir, nirmatrelvir, reference compound], the EC50 [1, 9] is reported as > 2000 nM, the EC50 ([1]; read-out: Antiviral EC50 (plaque assay) with Pgp inhibitor) is reported as 530 nM and the “Ext Data Fig 2f dose response (0 µM = 100)” value (shortened to “Ext Data Fig 2f dose response”) ([1]; concentration 0.01 µM) is reported as 108.0460 and 101.2658 and 103.7975 and 95.0617 and 93.8272 and 95.6522. For the same molecule, the “Ext Data Fig 2f dose response” value ([1]; concentration 0.02 µM) was 90.8046 and 108.8608 and 111.3924 and 104.9383 and 98.7654 and 104.3478, the “Ext Data Fig 2f dose response” value ([1]; concentration 0.04 µM) was 97.7011 and 96.2025 and 105.0633 and 97.5309 and 90.1235 and 85.5072 and the “Ext Data Fig 2f dose response” value ([1]; concentration 0.08 µM) was 93.1034 and 89.8734 and 106.3291 and 109.8765 and 100.0000 and 102.8986. The “Ext Data Fig 2f dose response” value ([1]; concentration 0.3 µM) was 104.5977 and 108.8608 and 102.5316 and 58.0247 and 83.9506 and 71.0145 and the “antiviral activity (lung viral burden), mild model” value (SARS-CoV-2 P2 strain) was “no antiviral activity”.

Work on `CC(C)(c1ccccc1)N1CCCCC1` [2-phenyl-2-(1-piperidinyl) propane, reference compound] yielded an IC50 (CYP2B6) of 8900 nM.

In the case of `CO/N=C(/c1ccc2cc(OC)ccc2c1)C1CCCN(C2CCCC2)C1` (stereo not shown) [WEHI-P2], the “IC50 (UbRh) SARS-CoV-2 PLpro” value (SARS-CoV-2 PLpro [2]) is reported as “submicromolar”, the “inhibition of SARS-CoV-2 PLpro, UbRh dose-response replicate value” (“inhibition of SARS-CoV-2 PLpro” for short) (SARS-CoV-2 PLpro [2]; Conc 0.00498 µM) is reported as -15.8303 and -11.7404 and -10.1452 and -13.4396 and 0.4248 and 3.42 and -8.071 and -0.3979 and the “inhibition of SARS-CoV-2 PLpro” value (SARS-CoV-2 PLpro [2]; Conc 0.0149 µM) is reported as -13.9221 and -7.6283 and -8.496 and -15.6937 and -2.169 and 1.092 and -11.0387 and -1.093. The “inhibition of SARS-CoV-2 PLpro” value (SARS-CoV-2 PLpro [2]; Conc 0.0448 µM) was -10.8825 and -7.692 and -10.0063 and -17.0131 and 5.235 and 6.569 and -0.8163 and 5.0409, the “inhibition of SARS-CoV-2 PLpro” value (SARS-CoV-2 PLpro [2]; Conc 3.63 µM) was 108.558 and 106.946 and 112.788 and 102.006 and 101.573 and 101.518 and 102.655 and the inhibition at 3.63 µM (SARS-CoV-2 PLpro [2]; Conc 3.63 µM, read-out: inhibition of SARS-CoV-2 PLpro, UbRh dose-response replicate value) was 110%. For the same molecule, the “inhibition of SARS-CoV-2 PLpro” value (SARS-CoV-2 PLpro [2]; Conc 98 µM) was 126.525 and 125.26 and 122.237 and 129.703 and 110.886 and 110.306 and 111.038 and 109.523, the “inhibition of SARS-CoV-2 PLpro” value (SARS-CoV-2 PLpro [2]; Conc […]) was 108.844 and the IC50 (SARS-CoV-2 PLpro [2]) was 397 nM. For the same molecule, the IC50 (SARS-CoV-2 PLpro [2]; Supplementary Fig. 2b) was 645 nM, the inhibition at […] (SARS-CoV-2 PLpro [2]; read-out: inhibition of SARS-CoV-2 PLpro, UbRh dose-response replicate value) was 127% and 123% and 74.5% and the EC50 (SARS-CoV-2 PLpro [3]) was 11000 nM. The “FRET EC50 (cellular)” value (SARS-CoV-2 PLpro [3]) was “micromolar cellular activity”, the EC50 [1, 9] was > 2000 nM and the “Molar Mass (kDa)” value (SARS-CoV-2 PLpro [4]) was 34.0141 kDa and 34.3179 kDa and 34.334 kDa. The “observed molar mass of PLpro (SEC-MALS)” value (SARS-CoV-2 PLpro [4]) was 34.2 kDa.

For `CC(=O)N1CCN(c2ccc(OCC3COC(Cn4ccnc4)(c4ccc(Cl)cc4Cl)O3)cc2)CC1` (stereo not shown) [Ketoconazole, reference compound], the IC50 (CYP3A4/5 [5]) was 11 nM, the “Fold Shift IC50 (-NADPH) / IC50 (+NADPH)” value (CYP3A4/5 [6]) was 0.68 and the IC50 (CYP3A4/5 [6]) was 8.4 nM. It also gave an IC50 (CYP3A4/5 [7]) of 10 nM, an IC50 shift (CYP3A4/5 [8]; Fold Shift IC50 (-NADPH) / IC50 (+NADPH)) of 0.8 and an IC50 (CYP3A4/5 [8]; Time dependent CYP3A4/5 IC50 + NADPH) of 16 nM. For the same molecule, the IC50 (CYP3A4/5 [8]; Time dependent CYP3A4/5 IC50 - NADPH) was 13 nM.
